Assay results as given in patent publication US12214008B2, “Protein interfaces” (SyntheX, Inc., priority 2016, dated 2025).

Tested on: D.rerio Rad51
Assay: Y2H assay RAD51/SEQ ID NO.: 5 pair
Format: binding
Set-up: key: cells having the interaction would survive (+); cells not having the interaction would die (−) on selective media (−ADE, −HIS)
Procedure: RAD51-binding peptides were tested for ability to bind RAD51 of several different species using a “conventional” Y2H assay, where interaction between the two-hybrid pair drove expression of ADE2 and HIS genes.

KRRRRRRRKRLGVRLRVSRML [SEQ ID NO.: 5]
Compound 5 Sequence Binding: +
